Assay results reported in patent publication US11584744B2 (UNIVERSITY OF WASHINGTON, priority 2017, dated 2023).
In brackets after ≈: the same amount, converted by molar mass. Like-named read-outs stand apart in the source and are kept apart here.

Experiments:
[1] = tested on: S. aureus MSSA (ATCC 29213); test: MIC susceptibility testing; type: cell-based, Staphylococcus aureus; conditions: S. aureus ATCC 29213; for MIC: Staphylococcus aureus, read-out: (F) S. aureus (ATCC 29213) MIC
Description: Media and culture conditions. Mueller Hinton broth (MHB), cation adjusted Mueller Hinton broth (CA-MHB), and Brain Heart Infusion broth (BHI) were purchased from Becton Dickinson (Franklin Lakes, N.J.). Tryptic soy agar (TSA) plates, TSA with 5% sheep blood plates, and CA-MHB with 3% laked horse blood were purchased from Remel (San Diego, Calif.). MHB was used to assay all Staphylococcus aureus strains. CA-MHB was used for Staphylococcus epidermidis, Enterococcus faecalis, Enterococcus faecium, Escherichia coli, and Pseudomonas aeruginosa. CA-MHB supplemented with 3% laked horse blood was used for Streptococcus pneumoniae and Streptococcus pyogenes. Staphylococcus, Enterococcus, Escherichia, and Pseudomonas strains were cultured at 37° C. with ambient air. Streptococcus strains were cultured in 37° C. with 5% CO2. Separate conditions for radiolabeled precursor uptake assays are described below.
Susceptibility testing: Minimum inhibitory concentration (MIC) determinations were performed in triplicate in 96-well round bottom microtiter plates (Corning, Corning N.Y.) as described by the Clinical and Laboratory Standards Institute (CLSI). Serial two-fold dilutions of compounds were added to plates in 50 μL volumes. An additional 50 μL of media containing bacterial cells (1×10^6 CFUs/mL) was then added to each well. Maximum DMSO concentrations were 0.5%. Plates were incubated at 37° C. for at least 18 h before reading the susceptibility result by optical absorbance (OD600) using a BioTek ELx800. The lowest concentration causing ≥90% growth inhibition compared to the untreated control was recorded as the MIC (and also corresponded to the visual MIC). MICs were measured at least twice and the higher value (if different) was recorded herein.

T. cruzi = T. cruzi growth inhibition; type: cell-based, Trypanosoma cruzi; conditions: read-out: (E) T. cruzi EC50
MetRS (T. brucei) = molecular target: T1, MetRS (T. brucei) (Trypanosoma brucei brucei, UniProt Q38C91); test: MetRS (T. brucei) enzyme inhibition; type: biochemical
T1 sequence (Q38C91 1-773): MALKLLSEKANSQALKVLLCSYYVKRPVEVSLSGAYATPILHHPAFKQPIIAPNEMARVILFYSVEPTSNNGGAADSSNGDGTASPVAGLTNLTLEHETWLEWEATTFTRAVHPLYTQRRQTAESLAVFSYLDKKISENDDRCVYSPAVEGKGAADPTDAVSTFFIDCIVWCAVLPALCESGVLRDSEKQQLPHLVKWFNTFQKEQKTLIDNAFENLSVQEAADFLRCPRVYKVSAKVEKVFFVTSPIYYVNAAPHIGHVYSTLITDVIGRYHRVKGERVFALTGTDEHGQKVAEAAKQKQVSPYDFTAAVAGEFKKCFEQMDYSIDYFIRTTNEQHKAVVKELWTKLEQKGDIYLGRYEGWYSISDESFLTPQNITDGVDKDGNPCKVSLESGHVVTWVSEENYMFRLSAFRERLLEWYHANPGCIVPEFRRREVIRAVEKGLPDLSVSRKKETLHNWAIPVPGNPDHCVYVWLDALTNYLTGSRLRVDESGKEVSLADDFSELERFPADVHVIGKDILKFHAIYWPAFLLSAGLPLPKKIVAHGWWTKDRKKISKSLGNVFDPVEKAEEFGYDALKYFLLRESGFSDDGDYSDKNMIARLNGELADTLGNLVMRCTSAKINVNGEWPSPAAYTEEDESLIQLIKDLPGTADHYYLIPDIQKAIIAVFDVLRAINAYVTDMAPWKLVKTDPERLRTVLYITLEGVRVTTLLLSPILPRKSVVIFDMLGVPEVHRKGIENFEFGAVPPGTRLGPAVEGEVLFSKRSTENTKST

MetRS (C. parvum) = MetRS (C. parvum) (Cryptosporidium parvum, UniProt Q5CVN0); test: MetRS (C. parvum) enzyme inhibition; type: biochemical; conditions: read-out: (C) MetRS (C. parvum) IC50
T. brucei = T. brucei growth inhibition; type: cell-based, Trypanosoma brucei; conditions: Trypanosoma brucei; read-out: (D) T. brucei EC50

MetRS (C. parvum), sequence (Q5CVN0 entry or part of it): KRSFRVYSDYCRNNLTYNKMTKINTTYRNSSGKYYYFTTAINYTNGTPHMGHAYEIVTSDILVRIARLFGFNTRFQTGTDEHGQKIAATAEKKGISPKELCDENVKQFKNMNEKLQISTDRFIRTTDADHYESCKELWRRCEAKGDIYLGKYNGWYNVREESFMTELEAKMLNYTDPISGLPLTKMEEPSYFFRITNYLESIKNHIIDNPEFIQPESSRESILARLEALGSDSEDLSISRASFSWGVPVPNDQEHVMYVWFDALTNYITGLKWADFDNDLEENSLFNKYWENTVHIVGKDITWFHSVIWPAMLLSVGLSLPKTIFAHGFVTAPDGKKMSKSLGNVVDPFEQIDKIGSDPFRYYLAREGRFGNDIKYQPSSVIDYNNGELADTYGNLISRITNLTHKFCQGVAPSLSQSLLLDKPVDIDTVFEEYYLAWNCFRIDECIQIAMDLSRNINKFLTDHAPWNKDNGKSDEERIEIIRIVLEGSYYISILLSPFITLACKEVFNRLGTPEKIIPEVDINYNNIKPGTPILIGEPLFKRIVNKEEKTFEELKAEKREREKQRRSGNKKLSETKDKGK

Compound | MIC [1] | EC50 (T. cruzi; Trypanosoma cruzi) | EC50 (T. cruzi) | IC50 (MetRS (T. brucei)) | IC50 (MetRS (C. parvum)) | EC50 (T. brucei) | (F) S. aureus (ATCC 29213) MIC [1]
COc1ccc(Cc2cn(Cc3nc4nc(F)ccc4[nH]3)c(=O)n2CC(F)F)c(Cl)c1 [Compound 2259, 4-[(2-chloro-4-methoxyphenyl)methyl]-3-(2,2-difluoroethyl)-1-({5-fluoro-1H-imidazo[4,5-b]pyridin-2-yl}methyl)-2,3-dihydro-1H-imidazol-2-one] | 0.422 µg/mL (≈ 0.934 µM) | 0.0322 µM | 0.0414 µM | – | – | – | –
COc1ccc(-c2cccn3c(SC)c(Cc4nc5nc(Cl)ccc5[nH]4)nc23)c(Cl)c1 [Compound 2150, 2-({5-chloro-1H-imidazo[4,5-b]pyridin-2-yl}methyl)-8-(2-chloro-4-methoxyphenyl)-3-(methylsulfanyl)imidazo[1,2-a]pyridine] | – | – | – | < 0.04 µM | 0.468 µM | 0.897 µM | –
COc1ccc(-n2ccc(=O)c3cc(F)c(Cc4nc5nc(Cl)ccc5[nH]4)cc32)c(Cl)c1 [Compound 2178, 7-((5-chloro-1H-imidazo[4,5-b]pyridin-2-yl)methyl)-1-(2-chloro-4-methoxyphenyl)-6-fluoroquinolin-4(1H)-one] | – | – | – | 0.116 µM | 0.881 µM | 5.66 µM | –
COc1cc(Cl)c(-c2cccc3nc(Cc4nc5nc(Cl)ccc5[nH]4)cn23)cc1Cl [Compound 2132, 2-({5-chloro-1H-imidazo[4,5-b]pyridin-2-yl}methyl)-5-(2,5-dichloro-4-methoxyphenyl)imidazo[1,2-a]pyridine] | – | – | – | < 0.04 µM | 0.656 µM | 0.508 µM | –
COc1ccc(-c2nn(C)c3c2CN(Cc2nc4nc(Cl)ccc4[nH]2)CC3)c(Cl)c1 [Compound 2187, 5-((5-chloro-1H-imidazo[4,5-b]pyridin-2-yl)methyl)-3-(2-chloro-4-methoxyphenyl)-1-methyl-4,5,6,7-tetrahydro-1H-pyrazolo[4,3-c]pyridine] | – | – | – | 0.117 µM | 0.113 µM | > 2 µM | –
COc1ccc(-c2c3c(nn2C)CCN(Cc2nc4nc(Cl)ccc4[nH]2)C3)c(Cl)c1 [Compound 2188, 5-((5-chloro-1H-imidazo[4,5-b]pyridin-2-yl)methyl)-3-(2-chloro-4-methoxyphenyl)-2-methyl-4,5,6,7-tetrahydr0-2H-pyrazolo[4,3-c]pyridine] | – | – | – | < 0.04 µM | 0.443 µM | 0.808 µM | –
COc1ccc(-c2cccc3nc(Cc4nc5nc(Cl)ccc5[nH]4)oc23)c(Cl)c1 [Compound 2162, 2-({5-chloro-1H-imidazo[4,5-b]pyridin-2-yl}methyl)-7-(2-chloro-4-methoxyphenyl)-1,3-benzoxazole] | – | – | – | < 0.04 µM | 0.0904 µM | 0.175 µM | –
Oc1cc(-c2cccc3nc(Cc4nc5nc(Cl)ccc5[nH]4)cn23)c(Cl)cc1Cl [Compound 2268, 2,4-dichloro-5-[2-({5-chloro-1H-imidazo[4,5-b]pyridin-2-yl}methyl)imidazo[1,2-a]pyridin-5-yl]phenol] | 0.69 µg/mL (≈ 1.55 µM) | – | – | – | – | 0.186 µM | 0.345 µg/mL
Clc1cc(Cl)cc(-c2cccc3nc(Cc4nc5nc(Cl)ccc5[nH]4)cn23)c1 [Compound 2130, 2-({5-chloro-1H-imidazo[4,5-b]pyridin-2-yl}methyl)-5-(3,5-dichlorophenyl)-imidazo[1,2-a]pyridine] | – | – | – | 0.19 µM | > 1 µM | 0.196 µM | –
COc1ccc(-c2cccc3c2CN(Cc2nc4nc(F)ccc4[nH]2)CC3)c(Cl)c1 [Compound 2167, 8-(2-chloro-4-methoxyphenyl)-2-((5-fluoro-1H-imidazo[4,5-b]pyridin-2-yl)methyl)-1,2,3,4-tetrahydroisoquinoline] | – | – | – | 0.203 µM | 0.505 µM | > 2 µM | –
COc1ccc(-c2cccc3c2CN(Cc2nc4nc(Cl)ccc4[nH]2)CC3)c(Cl)c1 [Compound 2161, 2-({5-chloro-1H-imidazo[4,5-b]pyridin-2-yl}methyl)-8-(2-chloro-4-methoxyphenyl)-1,2,3,4-tetrahydroisoquinoline] | – | – | – | < 0.04 µM | 0.252 µM | 1.05 µM | –
OCCNc1nc(Cc2ccc(Cl)cc2Cl)cn1Cc1nc2ccc(Cl)cc2[nH]1 [Compound 2196, 2-({1-[(6-chloro-1H-1,3-benzodiazol-2-yl)methyl]-4-[(2,4-dichlorophenyl)methyl]-1H-imidazol-2-yl}amino)ethan-1-ol] | – | – | – | 1.28 µM | > 1 µM | > 2 µM | –
COc1cc(Cl)c(-c2cccc3nc(Nc4nc5nc(F)ccc5[nH]4)cn23)cc1OC [Compound 2267, 5-(2-chloro-4,5-dimethoxyphenyl)—N-{5-fluoro-1H-imidazo[4,5-b]pyridin-2-yl}imidazo[1,2-a]pyridin-2-amine] | > 2 µg/mL | – | – | – | – | > 2 µM | –
CCn1c(Cc2ccc(Cl)cc2Cl)cn(C(C)c2nc3ccc(Cl)nc3[nH]2)c1=O (stereo not shown) [Compound 2142, 1-(1-{5-chloro-1H-imidazo[4,5-b]pyridin-2-yl}ethyl)-4-[(2,4-dichlorophenyl)-methyl]-3-ethyl-2,3-dihydro-1H-imidazol-2-one] | – | – | – | < 0.04 µM | 0.0894 µM | 0.489 µM | –
CCOc1cc(-c2cccc3nc(Cc4nc5nc(Cl)ccc5[nH]4)cn23)c(Cl)cc1Cl [Compound 2269, 2-({5-chloro-1H-imidazo[4,5-b]pyridin-2-yl}methyl)-5-(2,4-dichloro-5-ethoxyphenyl)imidazo[1,2-a]pyridine] | 1.77 µg/mL (≈ 3.74 µM) | – | – | – | – | 0.102 µM | 1.44 µg/mL
Fc1ccc2[nH]c(Cc3cn4c(-c5cc(Cl)cc(Cl)c5)cccc4n3)nc2n1 [Compound 2131, 5-(3,5-dichlorophenyl)-2-({5-fluoro-1H-imidazo[4,5-b]pyridin-2-yl}methyl)-imidazo[1,2-a]pyridine] | – | – | – | 0.325 µM | 0.806 µM | 0.197 µM | –
Clc1ccc(Cn2cnc(Cc3nc4nc(Cl)ccc4[nH]3)c2)c(Cl)c1 [Compound 2190, 4-({5-chloro-1H-imidazo[4,5-b]pyridin-2-yl}methyl)-1-[(2,4-dichlorophenyl)methyl]-1H-imidazole] | – | – | – | < 0.04 µM | 0.0917 µM | 0.174 µM | –
COc1ccc(-c2cnc3ccc(NCc4nc5nc(F)ccc5[nH]4)cn23)c(Cl)c1 [Compound 2173, 3-(2-chloro-4-methoxyphenyl)—N-((5-fluoro-1H-imidazo[4,5-b]pyridin-2-yl)methyl)imidazo[1,2-a]pyridin-6-amine] | – | – | – | 0.057 µM | 0.185 µM | > 2 µM | –
CCOc1ccc(-c2cccc3nc(Cc4nc5nc(Cl)ccc5[nH]4)cn23)c(Cl)c1 [Compound 2164, 2-({5-chloro-1H-imidazo[4,5-b]pyridin-2-yl}methyl)-5-(2-chloro-4-ethoxyphenyl)imidazo[1,2-a]pyridine] | – | – | – | 0.143 µM | > 1 µM | 1.91 µM | –
CCn1c(Cc2ccc(OC)cc2Cl)cn(Cc2nc3cnc(Cl)nc3[nH]2)c1=O [Compound 2286, 4-[(2-chloro-4-methoxyphenyl)methyl]-1-[(2-chloro-7H-purin-8-yl)methyl]-3-ethyl-2,3-dihydro-1H-imidazol-2-one] | – | – | – | – | – | > 2 µM | –
CCn1c(Cc2cc(OC)c(OC)cc2Cl)cn(Cc2nc3nc(Cl)ccc3[nH]2)c1=O [Compound 2275, 1-({5-chloro-1H-imidazo[4,5-b]pyridin-2-yl}methyl)-4-[(2-chloro-4,5-dimethoxyphenyl)methyl]-3-ethyl-2,3-dihydro-1H-imidazol-2-one] | – | – | – | – | – | < 0.00091 µM | –
